Patent US20030180735A1, “Screening method” (priority 1999, published 2003)
Entries after “also recorded” stand apart in the source; their conditions may differ.

Assays:
Assay type in all cases: cell-based
[1] = system: HeLa cells; settings: agent plus cisplatin 10 μg/ml, overnight, crystal violet
Method: In our system, cells are cultured in 96 well plates in 100 μl of culture medium and are treated in ways known to induce apoptosis. Following an indicated period of time, 10 μl MTT stock solution (5 mg/mi) is added to each culture being assayed and incubated at 37° C. for 4 h. At the end of the incubation period the converted dye is solubilised with acidic-isopropanol (0.04N HCL. Absorbance of converted dye is measured at a wavelength of 570 nm.
The following example describes a method to analyse viability of adherent cells, such as HeLa, using chemical stain Crystal Violet. Adherent cells are cultured in the presence of known agents to induce/ modulate the apoptotic process. After a suitable period of time, supernatants are removed by inverting and flicking the plate. Wells are washed twice with PBS and remaining adherent cells are fixed with 100% EtOH and air-dried. To each well is added 100 μl of 1% aqueous Crystal Violet Solution (Sigma). Plates are then incubated at room temperature (RT) for 5 min before washing in tap water. Wells are solubilised in 33% acetic acid and optical density is measured at 570 nm using a plate reader.
HeLa cells are plated in full culture medium at a concentration of 2×10^4 cells/well of 96 well plate. […] Cells are cultured overnight at 37° C. before analysing for apoptosis using either MTT or crystal violet.
HeLa cells are plated in full culture medium at a concentration of 2×10^4 cells/well of 96 well plate. […] Cells are cultured overnight at 37° C. before analysing for apoptosis using crystal violet.
HeLa cells are plated into 96 well plate at a concentration of 2×10^4/well and allowed to adhere for 4 hours Culture medium is then replaced with fresh medium containing the indicated concentrations of TNFα together with 5 μg/ml cycloheximide. Cultures are maintained for a further 18 hours, before measuring apoptosis with crystal violet and reading @570 nm in a plate reader.
Cells are cultured for a further 18 h before staining the remaining adherent cells with crystal violet and measuring absorbance at 570 nm.

[2] = system: primary human neutrophils; test: Neutrophil survival/viability by MTT assay
Method: primary human neutrophils are isolated and purified from peripheral blood of normal healthy individuals. Neutrophils are resuspended in serum containing culture medium together with various amounts of GM-CSF at a density of 2×10^6/ml, with 100 μl plated into a 96 well plate and cultured for 18 h at 37° C. After this time 10 μl of MTT (5 mg/ml) is added to the cultures and incubated for a further 4 h at 37° C. before solubilisation of the purple coloured formazan with acidic isopropanol. Optical densities are read at 570 nm using a plate reader.
A time course of GM-CSF additions was carried out to neutrophils in order to determine up to what stage GM-CSF can induce survival in neutrophils. primary human neutrophils are isolated and purified from peripheral blood of normal healthy individuals. Neutrophils are resuspended in serum containing culture medium at a concentration of 2×10^6/ml, with 100 μl/well plated into a 96 well plate and culture at 37° C. commenced. At the indicated time points GM-CSF (50U/ml) was added to the neutrophils and culture continued until 20 h post initiation of culture. After this time, 10 μl of MTT (5 mg/ml) was added to the cultures and incubated for a further 4 h at 37° C. before solubilisation of the purple coloured formazan with acidic isopropanol. Optical densities were read at 570 nm using a plate reader. […] However, if administration of the cytokine is delayed for 20 h post isolation, the protective effect is zero in 24 h cultures.
We performed timed additions of anti-GM-CSF antibody to neutrophils in order to determine how immediate the anti-apoptotic effects induced by GM-CSF occur. primary human neutrophils are isolated and purified from peripheral blood of normal healthy individuals. […] Optical densities are read at 570 nm using a plate reader. […]
In our system, cells are cultured in 96 well plates in 100 μl of culture medium and are treated in ways known to induce apoptosis. […] At the end of the incubation period the converted dye is solubilised with acidic-isopropanol (0.04N HCL. Absorbance of converted dye is measured at a wavelength of 570 nm.

[3] = system: primary human neutrophils; test: Neutrophil gene expression, Incyte LifeGrid microarray
Method: Primary human neutrophils are isolated and purified from peripheral blood of normal healthy individuals. Neutrophils are resuspended in serum containing culture medium together with GM-CSF (50U) at a concentration of 2×10^6/ml, and cultured for 0 h (control), 2 h, 4 h and 6 h at 37° C. After these times, total cellular RNA is extracted and this used as the starting material for analysis of gene expression changes.
Primary human neutrophils are isolated and purified from peripheral blood of normal healthy individuals. Neutrophils are resuspended in serum containing culture medium together with GM-CSF (50U) at a concentration of 2×10^6/ml, and cultured for 0 h (control), 2 h, 4 h and 6 h at 37° C. After these times, total cellular RNA is extracted and this used as the starting material for analysis of gene expression changes using the Incyte “LifeGrid” microarray. Following cluster analysis, a cluster of genes are identified that contained several genes involved in neutrophil survival and whose transcription is up—regulated upon GM-CSF treatment. This cluster, which included BcI2-A1 (a ‘known’ antiapoptotic neutrophil BCL2 family member) is termed the ‘survival’ cluster (See FIG. 14). Among these genes, one group that could be clearly identified are those genes whose protein products are involved in protecting the cell against an increased oxidative environment (FIG. 14). […] Since all these gene products are attenuators of the oxidative cellular response it is indicative that GM-CSF protects the cell by reducing the harmful effects of reactive oxygen species. The corollary therefore is that spontaneous apoptosis must be due to an uncontrolled oxidative environment within the cell. Furthermore, this reaffirms that the neutrophils response to reactive oxidative species is […] of the glutathione system.
Methodology is as described by manufacturer, for Human LifeGrid™ arrays. Essentially, total cellular RNA (1 μg to 20 μg) or polyA+ mRNA (100 ng to 5 μg) is incubated with an oligo (dT) primer. Primed RNA is reverse transcribed to first stand cDNA in a reaction containing M-MLV reverse transcriptase (RT; alternatively Superscript II is used (Life Sciences)), RT buffer, dNTPs and [α-^33P] dCTP (2000-4000 Ci/mmol) at 42° C. for 1 to 5 h.
Methodology is as described by manufacturer, for Human LifeGrid™ arrays.

[4] = GM-CSF (50U), vs control levels

How did the “HeLa cell sensitivity to cisplatin” value [1] turn out when `CCCCS(=N)(=O)CCC(N)C(=O)O` (stereo not shown) [BSO, buthionine sulphoximine] was run?
The value was “increase the sensitivity; also recorded: dramatically sensitises HeLa cell towards cisplatin”.

And the “effect on GM-CSF mediated survival” value ([2]; BSO 1 or 4 mM, GM-CSF 5 u/ml, 18 h)?
Its value is “did not impact on GM-CSF to mediate survival”.

`CC(=O)N[C@@H](CS)C(=O)O` [NAC] was tested. Which “HeLa cell sensitivity to cisplatin” value [1] did it give?
Its value is “decreased; also recorded: desensitised towards cisplatin”.

What does the source list for “GM-CSF: well-characterised neutrophil growth/survival factor (cytokine)”?
expression of catalase [3, 4]: increased expression; expression of ferritin [3, 4]: increased expression; expression of mitochondrial superoxide dismutase [3, 4]: increased expression; transcription of fructose 1,6 bisphosphatase ([3]; GM-CSF, 6 hour period): upregulates; transcription of phosphofructokinase 1 ([3]; GM-CSF, 6 hour period): down regulated; relation of survival to GM-CSF concentration (MTT) ([2]; 18 h culture): direct correlation between survival and concentrations of GM-CSF; protective effect when GM-CSF addition is delayed 20 h post isolation ([2]; GM-CSF 50U/ml, 24 h cultures): zero and not sufficient to mediate survival
